In patent publication US20110086759A1, “CHEMICAL COMPOUNDS” (SYNGENTA CROP PROTECTION, INC., priority 2007, published 2011):

Assays:
Assay type in all cases: in vivo
[1] = system: Alopecurus myosuroides (ALOMY); assay: Pre-emergence biological efficacy, glasshouse pot test; settings: 312 h
Experimental: (§1) Seeds of Alopecurus myosuroides (ALOMY), Setaria faberi (SETFA), Echinochloa crus-galli (ECHCG), Solanum nigrum (SOLNI), Amaranthus retoflexus (AMARE) and Ipomea hederaceae (IPOHE) were sown in standard soil in pots. After cultivation for one day under controlled conditions in a glasshouse (at 24/16° C., day/night; 14 hours light; 65% humidity), the plants were sprayed with an aqueous spray solution derived from the formulation of the technical active ingredient in acetone/water (50:50) solution containing 0.5% Tween 20 (polyoxyethelyene sorbitan monolaurate, CAS RN 9005-64-5) to give a final dose of 1000 or 250 g/ha of test compound.
(§2) The test plants were then grown under controlled conditions in the glasshouse (at 24/16° C., day/night; 14 hours light; 65% humidity) and watered twice daily. After 13 days the test was evaluated (100=total damage to plant; 0=no damage to plant).

[2] = system: Amaranthus retoflexus (AMARE); assay: as above; settings: Amaranthus retroflexus, 312 h; pre-emergence, 1,000 g/ha, evaluated after 13 days (100=total damage; 0=no damage); read-out: Percentage damage AMARE
Experimental: as §1, §2

[3] = system: Echinochloa crus-galli (ECHCG); assay: as above; settings: 312 h
Experimental: as §1, §2

[4] = system: Ipomea hederaceae (IPOHE); assay: as above; settings: Ipomoea hederacea, 312 h
Experimental: as §1, §2

[5] = system: Setaria faberi (SETFA); assay: as above; settings: 312 h
Experimental: as §1, §2

[6] = system: Solanum nigrum (SOLNI); assay: as above; settings: 312 h, pre-emergence, 1,000 g/ha, evaluated after 13 days (100=total damage; 0=no damage), read-out: Percentage damage SOLNI
Experimental: as §1, §2

[7] = system: Alopecurus myosuroides (ALOMY); assay: Post-emergence biological efficacy, glasshouse pot test; settings: 312 h
Experimental: as §1, with “8 days” for “one day”
(§3) The test plants were then grown on under controlled conditions in a glasshouse (at 24/16° C., day/night; 14 hours light; 65% humidity) and watered twice daily. After 13 days the test was evaluated (100=total damage to plant; 0=no damage to plant).

[8] = system: Amaranthus retoflexus (AMARE); assay: as above; settings: Amaranthus retroflexus, 312 h
Experimental: as §1, with “8 days” for “one day”
as §3

[9] = system: Echinochloa crus-galli (ECHCG); assay: as above; settings: 312 h
Experimental: as §1, with “8 days” for “one day”
as §3

[10] = system: Ipomea hederaceae (IPOHE); assay: as above; settings: Ipomoea hederacea, 312 h
Experimental: as §1, with “8 days” for “one day”
as §3

[11] = system: Setaria faberi (SETFA); assay: as above; settings: 312 h
Experimental: as §1, with “8 days” for “one day”
as §3

[12] = system: Solanum nigrum (SOLNI); assay: as above; settings: 312 h
Experimental: as §1, with “8 days” for “one day”
as §3

[13] = pre-emergence, 1,000 g/ha, evaluated after 13 days (100=total damage; 0=no damage), read-out: Percentage damage ALOMY
[14] = pre-emergence, 1,000 g/ha, evaluated after 13 days (100=total damage; 0=no damage), read-out: Percentage damage ECHCG
[15] = pre-emergence, 1,000 g/ha, evaluated after 13 days (100=total damage; 0=no damage), read-out: Percentage damage IPOHE
[16] = pre-emergence, 1,000 g/ha, evaluated after 13 days (100=total damage; 0=no damage), read-out: Percentage damage SETFA
[17] = post-emergence, 1,000 g/ha, evaluated after 13 days (100=total damage; 0=no damage), read-out: Percentage damage caused to weed species, ALOMY
[18] = post-emergence, 1,000 g/ha, evaluated after 13 days (100=total damage; 0=no damage), read-out: Percentage damage caused to weed species, AMARE
[19] = post-emergence, 1,000 g/ha, evaluated after 13 days (100=total damage; 0=no damage), read-out: Percentage damage caused to weed species, ECHCG
[20] = post-emergence, 1,000 g/ha, evaluated after 13 days (100=total damage; 0=no damage), read-out: Percentage damage caused to weed species, IPOHE
[21] = post-emergence, 1,000 g/ha, evaluated after 13 days (100=total damage; 0=no damage), read-out: Percentage damage caused to weed species, SETFA
[22] = post-emergence, 1,000 g/ha, evaluated after 13 days (100=total damage; 0=no damage), read-out: Percentage damage caused to weed species, SOLNI

Row | Structure (SMILES) | pest or weed control at 1000 g/ha [1, 13] | pest or weed control at 1000 g/ha [2] | pest or weed control at 1000 g/ha [3, 14] | pest or weed control at 1000 g/ha [4, 15] | pest or weed control at 1000 g/ha [5, 16] | pest or weed control at 1000 g/ha [6] | pest or weed control at 1000 g/ha [7, 17] | pest or weed control at 1000 g/ha [8, 18] | pest or weed control at 1000 g/ha [9, 19] | pest or weed control at 1000 g/ha [10, 20] | pest or weed control at 1000 g/ha [11, 21] | pest or weed control at 1000 g/ha [12, 22] | further results
1 | COC(=O)c1nc(C2CC2)nc(N[C@H]2CCCC[C@@H]2O)c1Cl (relative stereo) [4-36 (trans), 5-Chloro-2-cyclopropyl-4-(trans-2-hydroxycyclohexyl-amino)-6-methoxy-carbonylpyrimidine] | 10% | 80% | 20% | 60% | 20% | 70% | 20% | 80% | 10% | 40% | 20% | 70% | –
2 | COC(=O)c1nc(C2CC2)nc(NC2(/C=C/c3ccccc3)CC2)c1Cl [4-19 (E), 5-Chloro-2-cyclopropyl-6-methoxycarbonyl-4-[1-(2-phenyl-ethenyl)-cyclo-propylamino]-pyrimidine] | 20% | 40% | 20% | 80% | 20% | 60% | 20% | 100% | 40% | 100% | 70% | 80% | –
3 | COC(=O)c1nc(C2CC2)nc(NC2(/C=C\c3ccccc3)CC2)c1Cl [4-19 (Z), 5-Chloro-2-cyclopropyl-6-methoxycarbonyl-[(Z)-1-(2-phenylethenyl)-cyclopropylamino]-pyrimidine] | 20% | 90% | 20% | 90% | 0% | 40% | 10% | 100% | 30% | 100% | 60% | 90% | –
4 | COC(=O)c1nc(C2CC2)nc(N[C@@H]2c3ccccc3C[C@@H]2O)c1Cl [4-37 (1R,2S), 5-Chloro-2-cyclopropyl-4-[(1R, 2S)-2-hydroxy-indan-1-ylamino]-6-methoxycarbonyl-pyrimidine] | 50% | 100% | 60% | 100% | 80% | 100% | 30% | 100% | 60% | 100% | 70% | 100% | –
5 | COC(=O)c1nc(C2CC2)nc(N[C@H]2c3ccccc3C[C@H]2O)c1Cl [4-37 (1S,2R), 5-Chloro-2-cyclopropyl-4-[(1S, 2R)-2-hydroxy-indan-1-ylamino]-6-methoxycarbonyl-pyrimidine] | 30% | 100% | 40% | 80% | 60% | 90% | 50% | 100% | 60% | 50% | 60% | 100% | –
6 | COC(=O)c1nc(C2CC2)nc(NCCC2=CCCCC2)c1Cl [Compound 4-215, 5-Chloro-4-[2-(cyclohex-1-enyl)ethylamino]-2-cyclopropyl-6-methoxycarbonyl-pyrimidine] | 10% | 100% | 20% | 90% | 20% | 90% | 20% | – | 30% | 80% | 50% | 100% | –
7 | COC(=O)c1nc(C2CC2)nc(NCC(F)c2cccc(Br)c2)c1Cl (stereo not shown) [Compound 4-235, 4-[2-(3-Bromophenyl)-2-fluoro-ethylamino]-5-chloro-2-cyclopropyl-6-methoxycarbonyl-pyrimidine] | 0% | – | 0% | 0% | 0% | – | 0% | 100% | 30% | 70% | 20% | 60% | –
8 | COC(=O)c1nc(-c2ccc(OC)c(F)c2)nc(NCc2ccco2)c1Cl [Compound 253-48, 5-Chloro-2-(3-fluoro-4-methoxyphenyl)-4-(furan-2-yl-methyl-amino)-6-methoxy-carbonylpyrimidine] | – | – | – | – | – | – | – | – | – | – | – | – | pest or weed control at 1000 g/ha ([1]; pre-emergence, rate 1,000 g/ha, evaluated after 13 days (100=total damage to plant; 0=no damage), read-out: Percentage damage caused to weed species, ALOMY): 0%; pest or weed control at 1000 g/ha ([3]; pre-emergence, rate 1,000 g/ha, evaluated after 13 days (100=total damage to plant; 0=no damage), read-out: Percentage damage caused to weed species, ECHCG): 0%; pest or weed control at 1000 g/ha ([4]; pre-emergence, rate 1,000 g/ha, evaluated after 13 days (100=total damage to plant; 0=no damage), read-out: Percentage damage caused to weed species, IPOHE): 0%; pest or weed control at 1000 g/ha ([5]; pre-emergence, rate 1,000 g/ha, evaluated after 13 days (100=total damage to plant; 0=no damage), read-out: Percentage damage caused to weed species, SETFA): 0%; pest or weed control at 1000 g/ha ([7]; Rate 1,000 g/ha, post-emergence spray, evaluated after 13 days (100=total damage to plant; 0=no damage to plant), read-out: Percentage damage caused to weed species, post-emergence, ALOMY): 0%; pest or weed control at 1000 g/ha ([8]; Rate 1,000 g/ha, post-emergence spray, evaluated after 13 days (100=total damage to plant; 0=no damage to plant), read-out: Percentage damage caused to weed species, post-emergence, AMARE): 70%; pest or weed control at 1000 g/ha ([9]; Rate 1,000 g/ha, post-emergence spray, evaluated after 13 days (100=total damage to plant; 0=no damage to plant), read-out: Percentage damage caused to weed species, post-emergence, ECHCG): 0%; pest or weed control at 1000 g/ha ([10]; Rate 1,000 g/ha, post-emergence spray, evaluated after 13 days (100=total damage to plant; 0=no damage to plant), read-out: Percentage damage caused to weed species, post-emergence, IPOHE): 20%; pest or weed control at 1000 g/ha ([11]; Rate 1,000 g/ha, post-emergence spray, evaluated after 13 days (100=total damage to plant; 0=no damage to plant), read-out: Percentage damage caused to weed species, post-emergence, SETFA): 0%; pest or weed control at 1000 g/ha ([12]; Rate 1,000 g/ha, post-emergence spray, evaluated after 13 days (100=total damage to plant; 0=no damage to plant), read-out: Percentage damage caused to weed species, post-emergence, SOLNI): 40%
